{
  "source": "ChEMBL document CHEMBL3232817",
  "about": "“Structural elucidation and synthesis of vialinin C, a new inhibitor of TNF-α production” (Bioorg Med Chem, 2014)",
  "tested_on": "RBL-2H3",
  "assay": "Inhibition of TNF-alpha production in rat RBL2H3 cells",
  "format": "functional, cell-based",
  "data": [
    {"smiles": "O=C(Oc1c(OC(=O)c2ccc(O)cc2)c(-c2ccc(O)cc2)c(O)c(O)c1-c1ccc(O)cc1)c1ccc(O)cc1", "values": [
      {"measurement": "IC50", "result": 3.5, "unit": "nM"}
    ]},
    {"smiles": "O=C(Oc1c(-c2ccc(O)cc2)c(O)c2oc3cc(O)c(O)cc3c2c1OC(=O)c1ccc(O)cc1)c1ccc(O)cc1", "values": [
      {"measurement": "IC50", "result": 890, "unit": "nM"}
    ]},
    {"smiles": "O=C(Cc1ccccc1)Oc1c(OC(=O)Cc2ccccc2)c(-c2ccc(O)cc2)c(O)c(O)c1-c1ccc(O)cc1", "note": "[VIALININ A]", "values": [
      {"measurement": "IC50", "result": 0.25, "unit": "nM"}
    ]},
    {"smiles": "O=C(Cc1ccccc1)Oc1c(-c2ccc(O)cc2)c(O)c2oc3cc(O)c(O)cc3c2c1OC(=O)Cc1ccccc1", "note": "[VIALININ B]", "values": [
      {"measurement": "IC50", "result": 0.05, "unit": "nM"}
    ]}
  ]
}
